Calls of active or inactive are those of the source. Cut-off read from the data, not from the text of the source, for most assays here: actives have a measured EC50 and inactives only a lower limit.
What was measured:
[1] = biological target: T1, Heat shock factor protein 1 (Mus musculus, UniProt P38532); assay: decrease of HSF1-responsive luciferase luminescence – cell-based, NIH3T3, dose retest, confirmation (AID 2382); type: functional;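 note: NIH3T3 fibroblasts with HSF1-driven luciferase reporter stressed by proteasome inhibitor MG132; luminescence from HSF1-driven luciferase expression after 8 hours of MG132 stress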
T1 sequence (P38532 whole entry): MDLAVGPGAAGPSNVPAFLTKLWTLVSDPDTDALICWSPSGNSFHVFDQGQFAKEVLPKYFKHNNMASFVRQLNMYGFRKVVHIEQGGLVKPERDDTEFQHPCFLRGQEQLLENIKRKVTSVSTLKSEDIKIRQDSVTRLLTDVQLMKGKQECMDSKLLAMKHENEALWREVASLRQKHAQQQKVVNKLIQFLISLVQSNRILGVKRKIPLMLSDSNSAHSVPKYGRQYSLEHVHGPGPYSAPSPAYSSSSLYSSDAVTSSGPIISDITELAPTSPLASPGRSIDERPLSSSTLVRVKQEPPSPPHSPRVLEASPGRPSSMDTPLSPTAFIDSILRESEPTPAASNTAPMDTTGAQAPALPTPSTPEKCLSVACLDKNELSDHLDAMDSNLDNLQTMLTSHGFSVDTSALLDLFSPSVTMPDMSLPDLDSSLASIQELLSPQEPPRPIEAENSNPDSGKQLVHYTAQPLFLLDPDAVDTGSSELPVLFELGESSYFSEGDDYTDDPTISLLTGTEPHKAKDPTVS

[2] = Luminescence Cell-Based Dose Confirmation HTS to Identify Activators of 5'UTR Stem-Loop Driven Alpha-Synuclein mRNA Translation in H4 Neuroglioblastoma Cells. [Related pubchem assays: 1829 (Project Summary), 1814 (Primary HTS)]; type: functional
[3] = Luminescence Cell-Based Dose Response HTS to Identify Activators of Luciferase Translation or Activity in H4 […] Cells. [Related pubchem assays: 1829 (Project Summary), 1814 (Primary HTS)]; type: functional
H4 = assay: Luminescence Cell-Based Dose Response HTS to Identify Activators of 5'UTR Stem-Loop Driven Prion Protein mRNA Translation in H4 Neuroglioblastoma Cells. [Related pubchem assays: 1829 (Project Summary), 1814 (Primary HTS)]; type: functional; conditions: Homo sapiens
[4] = biological target: Luciferin 4-monooxygenase (Photinus pyralis, UniProt P08659); assay: inhibition of purified Photinus pyralis luciferase – biochemical, luminescence, dose response (AID 1891)
[5] = Luminescence Cell-Based Dose Confirmation HTS to Identify Inhibitors of Platelet Dense Granule Release. [Related pubchem assays: 1663 (Primary HTS), 1678 (Summary of Project)]; type: functional
[6] = biological target: T2, Rac GTPase-activating protein 1 (Homo sapiens, UniProt Q9H0H5); assay: blockers of MgcRacGAP-driven Rac1 GTP hydrolysis – biochemical, ADP Hunter fluorescence, primary and confirmatory, confirmation (AID 624330); type: functional
T2 sequence (Q9H0H5 whole entry): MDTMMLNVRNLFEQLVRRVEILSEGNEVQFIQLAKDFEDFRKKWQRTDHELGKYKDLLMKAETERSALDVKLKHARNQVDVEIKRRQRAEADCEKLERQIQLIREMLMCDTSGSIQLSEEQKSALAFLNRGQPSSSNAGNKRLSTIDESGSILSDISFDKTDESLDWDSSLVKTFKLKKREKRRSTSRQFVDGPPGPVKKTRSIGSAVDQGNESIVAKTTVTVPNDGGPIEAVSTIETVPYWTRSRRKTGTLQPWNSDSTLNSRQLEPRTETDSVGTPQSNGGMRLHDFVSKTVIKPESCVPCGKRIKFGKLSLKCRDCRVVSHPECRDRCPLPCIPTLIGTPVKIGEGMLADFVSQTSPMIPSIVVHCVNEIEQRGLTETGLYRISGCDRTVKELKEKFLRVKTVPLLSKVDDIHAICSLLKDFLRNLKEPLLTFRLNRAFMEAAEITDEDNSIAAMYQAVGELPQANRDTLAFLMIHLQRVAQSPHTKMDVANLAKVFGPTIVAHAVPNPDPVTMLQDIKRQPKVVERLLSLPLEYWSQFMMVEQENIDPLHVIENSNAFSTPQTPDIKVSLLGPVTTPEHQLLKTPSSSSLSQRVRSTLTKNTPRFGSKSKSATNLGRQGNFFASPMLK

[7] = system: Streptococcus sp. 'group A'; assay: Streptococcus pyogenes SK(-)GAS viability under kanamycin – luminescence, BacTiterGlo, confirmation, counter-screen for streptokinase expression inhibitor project, dose response (AID 1900); type: functional, organism-based
Streptokinase A = biological target: T3, Streptokinase A (Streptococcus pyogenes serotype M1, UniProt P10520); assay: viability-normalized secreted streptokinase activity reduction – plasminogen activation absorbance, OD405, dose response (AID 1914); type: functional, Streptococcus pyogenes M1 GAS;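 note: secreted streptokinase activity via plasminogen activation per viability signal from cell pellet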
T3 sequence (P10520 whole entry): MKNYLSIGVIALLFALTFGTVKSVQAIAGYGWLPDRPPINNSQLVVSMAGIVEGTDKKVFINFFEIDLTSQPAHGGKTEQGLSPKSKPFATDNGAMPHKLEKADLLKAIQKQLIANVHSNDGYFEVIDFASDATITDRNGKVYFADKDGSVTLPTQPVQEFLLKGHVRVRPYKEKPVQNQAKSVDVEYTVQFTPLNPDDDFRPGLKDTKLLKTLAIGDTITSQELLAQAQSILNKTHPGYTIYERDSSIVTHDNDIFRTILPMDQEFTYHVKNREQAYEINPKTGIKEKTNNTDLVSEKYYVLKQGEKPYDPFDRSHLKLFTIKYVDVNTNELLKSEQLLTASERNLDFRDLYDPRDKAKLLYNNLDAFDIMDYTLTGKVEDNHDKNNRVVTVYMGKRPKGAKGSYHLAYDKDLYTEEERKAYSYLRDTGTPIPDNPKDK

Streptococcus = assay: GAS UMAA2166 growth inhibition – luminescence, BacTiterGlo, counter-screen for streptokinase expression inhibitor project, dose response (AID 1915); type: functional, organism-based;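 note: potency for reduction of bacterial viability or growth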
[8] = Luminescence Cell-Based Dose Retest to Confirm Inhibitors of Cancer Stem Cells. [Related pubchem assays (depositor defined):AID2717, AID2721]; type: functional; conditions: Homo sapiens
Paired box protein Pax-8 = Paired box protein Pax-8 (Homo sapiens, UniProt Q06710); assay: PAX8 transcriptional activity inhibition in RMG-I – RMG-I cells, luciferase, cherry-pick, dose response (AID 687027); type: functional, cell-based;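 note: luciferase reporter driven by Pax8 target thyroperoxidase promoter measured by SteadyGlo luminescence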
Sequence of Paired box protein Pax-8 (Q06710 whole entry): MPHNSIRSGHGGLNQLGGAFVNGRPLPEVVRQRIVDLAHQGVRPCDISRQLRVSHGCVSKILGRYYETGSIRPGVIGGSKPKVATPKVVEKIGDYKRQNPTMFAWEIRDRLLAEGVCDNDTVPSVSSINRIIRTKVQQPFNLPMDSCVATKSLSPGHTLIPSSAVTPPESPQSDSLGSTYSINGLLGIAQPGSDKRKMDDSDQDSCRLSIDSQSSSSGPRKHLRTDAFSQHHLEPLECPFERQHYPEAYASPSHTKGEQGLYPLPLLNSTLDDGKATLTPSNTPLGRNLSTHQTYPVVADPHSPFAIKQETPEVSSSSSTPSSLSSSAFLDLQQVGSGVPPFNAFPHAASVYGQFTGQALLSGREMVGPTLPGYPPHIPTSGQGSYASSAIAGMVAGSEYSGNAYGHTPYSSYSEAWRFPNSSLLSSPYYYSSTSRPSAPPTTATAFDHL

Sequence of Luciferin 4-monooxygenase (P08659 whole entry): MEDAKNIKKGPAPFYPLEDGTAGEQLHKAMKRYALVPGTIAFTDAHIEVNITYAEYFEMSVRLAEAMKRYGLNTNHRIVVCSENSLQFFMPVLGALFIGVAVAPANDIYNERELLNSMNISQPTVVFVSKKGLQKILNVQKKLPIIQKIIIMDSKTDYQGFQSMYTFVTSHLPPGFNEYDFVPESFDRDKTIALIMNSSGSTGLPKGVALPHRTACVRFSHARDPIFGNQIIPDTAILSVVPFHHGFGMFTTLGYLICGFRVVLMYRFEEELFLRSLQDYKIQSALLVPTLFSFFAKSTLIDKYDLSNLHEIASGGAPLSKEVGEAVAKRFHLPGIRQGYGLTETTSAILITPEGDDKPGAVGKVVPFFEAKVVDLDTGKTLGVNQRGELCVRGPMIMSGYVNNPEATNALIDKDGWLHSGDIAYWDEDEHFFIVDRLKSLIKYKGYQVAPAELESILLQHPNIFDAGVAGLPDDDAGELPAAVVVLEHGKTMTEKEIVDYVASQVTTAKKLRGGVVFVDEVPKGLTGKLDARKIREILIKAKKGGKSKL

Cn1c(=O)c2c(SCC(=O)N3CCCc4ccccc43)nc(C3CC3)nc2n(C)c1=O
EC50 [1]: > 195 µM (not active)

O=C(NCc1ccccn1)C(=O)Nc1ccccc1
EC50 [2]: 46.3 µM (active) | EC50 [3]: 27.2 µM (active) | EC50 (H4): 13 µM (active)

S=C(c1ccc2c(c1)OCO2)N1CCCCC1
EC50 [4]: > 112 µM (not active) | EC50 [5]: > 112 µM (not active)

CSc1nc(N)n2nc(-c3ccccc3)cc2n1
EC50 [4]: 3.8 µM (active) | EC50 [5]: 5.68 µM (active)

CCOC(=O)C1=C(COC(=O)/C=C/c2ccc(O)c(OC)c2)NC(=O)NC1C (configuration not stated)
IC50 [6]: 59.4 µM (active)

O=C1c2ccccc2S(=O)(=O)c2cc(N3CCc4ccccc4C3)ccc21
EC50 [2]: 14 µM (active) | EC50 [3]: 16.3 µM (active) | EC50 (H4): 15.6 µM (active)

O=C(Nc1ccc2c(c1)OCO2)C1CC(c2c(F)cccc2Cl)=NO1 (configuration not stated)
EC50 [2]: 3.83 µM (active) | EC50 [3]: 25.6 µM (active) | EC50 (H4): 13.6 µM (active)

CN(C(=O)CSc1nncn1C)C1CCCN(Cc2ccccc2F)C1 (configuration not stated)
EC50 [4]: > 112 µM (not active) | EC50 [5]: > 112 µM (not active)

COc1ccc(NC(=O)C2CC2)cc1-n1cnnn1
EC50 [1]: > 195 µM (not active)

Nc1c(S(=O)(=O)c2cccs2)c2nc3ccccc3nc2n1/N=C/c1cccc(O)c1
EC50 [7]: 3.26 µM (active) | EC50 (Streptokinase A): > 150 µM (not active) | EC50 (Streptococcus): 7.29 µM (active) | AC50 [8]: 3.99 µM (active)

COc1ccc(OC(C)C(=O)N2CCC(C)CC2)cc1 (configuration not stated)
EC50 [1]: > 195 µM (not active)

CCN(CC)CCCNCC(=O)Nc1ccc2c(c1)CCC2
IC50 [6]: 117 µM (active)

C[n+]1ccc(C=NNc2nc(Cl)c(C#N)c(Cl)c2Cl)cc1
EC50 [7]: 33 µM (active) | EC50 (Streptokinase A): > 150 µM (not active) | EC50 (Streptococcus): > 150 µM (not active)

O=C(CC1CCCCC1)NCc1ccccc1Cl
EC50 [2]: > 120 µM (not active) | EC50 [3]: 14.1 µM (active) | EC50 (H4): > 120 µM (not active)

O=C(Nc1ccc2c(c1)CCC2)c1cc(S(=O)(=O)Nc2ccc(F)cc2)c(Cl)cc1Cl
EC50 [7]: 3.5 µM (active) | EC50 (Streptokinase A): 3.26 µM (active) | EC50 (Streptococcus): 15.2 µM (active) | AC50 [8]: 4.35 µM (active)

CCOC(=O)c1cnn(-c2nc3c(C)cccc3s2)c1C(F)(F)F
EC50 [7]: 9.35 µM (active) | EC50 (Streptokinase A): 22.3 µM (active) | EC50 (Streptococcus): 16.6 µM (active)

O=C(O)CC1Sc2ccccc2NC1=O (configuration not stated)
EC50 [4]: > 112 µM (not active) | EC50 [5]: > 112 µM (not active)

COc1ccc(N2CCN(C(=O)Cc3ccc(-n4c(=O)[nH]c5ccccc5c4=O)cc3)CC2)cc1
EC50 [1]: > 195 µM (not active)

Nc1ccc2nc(-c3ccccn3)[nH]c2c1
EC50 [1]: 23.2 µM (active)

Cc1ccc(C)c(CSC2=NCCN2S(=O)(=O)c2ccccc2)c1
EC50 [7]: 21.7 µM (active) | EC50 (Streptokinase A): 17.3 µM (active) | EC50 (Streptococcus): > 150 µM (not active)

O=C(O)c1ccc(/C=N\Nc2ccccn2)cc1
EC50 [4]: 3.56 µM (active) | EC50 [5]: 2.54 µM (active)

CNC(=O)c1cc(S(=O)(=O)N(C)C)ccc1Cl
EC50 [4]: > 112 µM (not active) | EC50 [5]: > 112 µM (not active)

Oc1ccc(-c2c(C3=CCCCC3)sc3ccccc23)cc1
EC50 [7]: 2.48 µM (active) | EC50 (Streptokinase A): 55.7 µM (inconclusive) | EC50 (Streptococcus): 7.29 µM (active)

O=C(NCC(O)c1ccccc1)c1ccc(Cl)c(S(=O)(=O)N2CCCC2)c1 (configuration not stated)
EC50 [2]: 37.8 µM (active) | EC50 [3]: 14.9 µM (active)

O=C(c1cc2ccccc2oc1=O)N(c1ccc(Cl)cc1)C1C=CS(=O)(=O)C1 (configuration not stated)
EC50 [2]: 13.6 µM (active) | EC50 [3]: 36.3 µM (active) | EC50 (H4): > 120 µM (not active)

CCN(CC)c1ccc(-n2cc3c(=O)n(C)c(=O)n(C)c3c2)cc1
EC50 [7]: 4.91 µM (active) | EC50 (Streptokinase A): > 150 µM (not active) | EC50 (Streptococcus): 39.3 µM (active)

Cc1cc(C(=O)CSc2nc3ccccc3o2)c(C)n1C1CC1
EC50 [2]: 35.7 µM (active) | EC50 [3]: 0.905 µM (active)

COc1ccc(N2CCN(C(CNC(=O)CC(C)(C)C)c3ccc4c(c3)OCO4)CC2)cc1 (configuration not stated)
IC50 [6]: 166 µM (active)

O=C(Nc1cccnc1)C1CCN(S(=O)(=O)c2cccs2)CC1
EC50 [2]: > 120 µM (not active) | EC50 [3]: > 120 µM (not active) | EC50 (H4): > 120 µM (not active)

COc1ccc(S(=O)(=O)NCC2CCCN(C(=O)C3CCCC3)C2)cc1 (configuration not stated)
EC50 [1]: > 195 µM (not active)

C[C@@H]1CCCCO[C@H](CN(C)Cc2ccc(C(F)(F)F)cc2)[C@H](C)CN([C@@H](C)CO)C(=O)c2cc(NS(=O)(=O)c3cccs3)ccc2O1
AC50 (Paired box protein Pax-8): 9.41 µM (active)

Sc1nnc(-c2cnccn2)n1-c1ccccc1
EC50 [1]: > 195 µM (not active)

Cc1cc(C)nc(NC2=NCCS2)n1
EC50 [4]: > 112 µM (not active) | EC50 [5]: > 112 µM (not active)

CCCCCOc1ccc(CSc2n[nH]c(C)n2)cc1
EC50 [2]: 63 µM (active) | EC50 [3]: 14.5 µM (active) | EC50 (H4): 20.8 µM (active)

Nc1c(Cl)ncnc1NCCc1ccc(O)cc1
IC50 [6]: 99.1 µM (active)

CCOC(=O)c1[nH]c2ccc(OC)cc2c1N=C(S)N1CCN(C(=O)OCC)CC1
EC50 [4]: > 112 µM (not active) | EC50 [5]: > 112 µM (not active)

COc1ccc(N(C(=O)c2ccc(F)cc2)C2=CC3CCC(C2)N3C)cc1 (configuration not stated)
EC50 [4]: > 112 µM (not active) | EC50 [5]: > 112 µM (not active)

CCOC(=O)c1sc(NC(=O)CC(C)c2ccccc2)nc1C (configuration not stated)
EC50 [4]: > 112 µM (not active) | EC50 [5]: > 112 µM (not active)

COc1ccc(/C=N/Nc2nccnc2Cl)cc1
EC50 [4]: 3.76 µM (active) | EC50 [5]: 1.15 µM (active)

O=C(Nc1ccccc1)C1=C[C@@H](c2ccccc2)C[C@@H](OCc2ccc(CO)cc2)O1
EC50 [2]: 7.69 µM (active) | EC50 [3]: > 120 µM (not active) | EC50 (H4): 14.2 µM (active)

FC(F)(F)c1cc(N2CCN(Cc3ccccc3)CC2)c2ccccc2n1
EC50 [7]: > 150 µM (not active) | EC50 (Streptokinase A): > 150 µM (not active) | EC50 (Streptococcus): > 150 µM (not active)

C/C(=N\N=C(/N)SC1CC(=O)N(c2ccc(Cl)c(Cl)c2)C1=O)c1cccs1 (configuration not stated)
EC50 [7]: 2.88 µM (active) | EC50 (Streptokinase A): 7.44 µM (inconclusive) | EC50 (Streptococcus): 8.08 µM (active) | AC50 [8]: 3.86 µM (active)

From ChEMBL document CHEMBL1201862, “PubChem BioAssay data set” (2004)
